Reference: patent US4096252A, “4-Trifluoromethylbenzoic acid derivatives as thromboembolic agents” (priority 1976, dated 1978)
Values joined by “and” are separate entries in the source; they are usually repeats but may differ in a detail not shown here. Equal values may be shown once. Read-outs that look alike come from different tables or passages of the source.

Assays:
[1] = tested on: blood coagulation factors and fibrinolysis; type: in vivo, human; details: oral; for Euglobin lysis time: Von Kaulas's test / Activated kaolin test / Activated partial thromboplastin test: APTI / Howell's test / Plasma prothrombine test: Quick test / Serum prothrombin time / Bleeding time, Duke test / Clotting time / Thromboelastogram K / Thromboelastogram r / Hematocrit / Platelet count: mean ± s.e.m.; for Euglobin lysis time: Von Kaulas's test: decrease vs control = drug effect; for Activated kaolin test / Activated partial thromboplastin test: APTI / Howell's test / Plasma prothrombine test: Quick test / Serum prothrombin time: decrease vs control = inhibitory effect; for Bleeding time, Duke test / Clotting time / Thromboelastogram K / Thromboelastogram r: increase vs control = inhibitory effect; for anticoagulant action (in words) / blood fibrinolytic activity (in words): humans; for Clot retraction / Degradation products of fibrinogen: DPF / Parrot's test / Tourniquet test: days not separated
Procedure: The values r and k (in parameter 15 of Table V) correspond to blood (b). Their significance appears from the Figure.
(§1) In the in vivo tests on humans, the two selected compounds were administered per os during six consecutive days at equimolar doses: 200 mg three times a day of 2-acetoxy-4-trifluoromethylbenzoic acid and 248 mg three times a day of 2-phosphonoxy-4-trifluoromethylbenzoic acid.
(§2) Blood was collected on the first, fourth and seventh day of the test and the platelet aggregation induced by ADP, epinephrine and collagen was determined according to the above-mentioned Born method.
The potential anticoagulant and fibrinolytic activity of the claimed compounds has therefore likewise been investigated. For this purpose, with the same blood samples used for the determination of in vivo antiaggregating action on humans, the following parameters were examined: clotting time, bleeding time (Duke test), tourniquet test, Parrot's test, plasma prothrombine test (Quick test), activated partial thromboplastin test (APTT), activated Kaolin test, Howell's test, serum prothrombin time, euglobulin lysis time, Von Kaula's test, degradation products of fibrinogen (DPF), platelet count, clot retraction, hematocrit and thromboelastogram.
EFFECT OF 2-ACETOXY-4-TRIFLUOROMETHYLBENZOIC ACID AND 2-PHOSPHONOXY-4-TRIF
ZOIC ACID ON BLOOD COAGULATION FACTORS AND FIBRINOLYSIS*.
treated with 2-acetoxy-4-trifluoromethylbenzoic acid and on 6 humans
treated with 2-phos phonoxy-4-trifluoromethylbenzoic acid. An increase of
the mean values (±s.e.m.) of parameters 1 and 2 or a decrease of
parameters 5,6,7,8,9,10 and 11 with respect to control, mean an inhibitor
effec of drugs on the blood coagulation and fibrinolysis.
**An increase of r and k values with respect to control, indicates an
inhibitory effect of the drugs on blood coagulation and also on platelet
aggregation. These figures are indicated in FIG. 2 which corresponds to a
normal thromboelastogram.

[2] = tested on: human platelet aggregation; test: In vitro inhibition of human platelet aggregation (Born and Cross method); type: cell-based
Procedure: Platelet aggregation was measured according to the method of Born and Cross (8) by using rat and human plasma. The results are summarized below in Tables I and II.
Key : PC = Plasma Concentration: PAI = Platelet Aggregation
*The percent of inhibition was calculated using the method described by
McKenzie (Proc. Soc. Exp. Biol. Med. 137: 662, 1971).

[3] = tested on: rat platelet aggregation; test: In vitro inhibition of rat platelet aggregation (Born and Cross method); type: cell-based; details: for inhibition at 830 µM / inhibition at 2080 µM / inhibition at 4150 µM / inhibition at 8300 µM: Rattus norvegicus, Platelet, rat plasma; for inhibition at 830 µM: plasma concentration 0.83×10^-3 molar; for inhibition at 2080 µM: plasma concentration 2.08×10^-3 molar; for inhibition at 4150 µM: plasma concentration 4.15×10^-3 molar; for inhibition at 8300 µM: plasma concentration 8.30×10^-3 molar
Procedure: Platelet aggregation was measured according to the method of Born and Cross (8) by using rat and human plasma.

[4] = tested on: human platelet aggregation; test: Human platelet aggregation induced by ADP and epinephrine after oral administration to humans; type: in vivo; details: Tables III and IV
Procedure: as §1, §2
(§3) EFFECT OF 2-ACETOXY-4-TRIFLUOROMETHYLBENZOIC ACID
(§4) AND 2-PHOSPHONOXY-4-TRIFLUOROMETHYLBENZOIC
ACID ON PLATELET AGGREGATION INDUCED BY ADP AND
EPINEPHRINE AFTER ORAL ADMINISTRATION TO HUMANS*
*The figures express the concentration (μM) that produces irreversible

[5] = tested on: human platelet aggregation; test: Human platelet aggregation induced by collagen after oral administration to humans; type: in vivo; details: collagen 33.3 μg/m, one value per human; for y (collagen-induced aggregation curve): decrease vs control = inhibition; for delay (collagen-induced aggregation curve) / x (collagen-induced aggregation curve): increase vs control = inhibition
Procedure: The significance of the parameters employed in Table IV (x, y and delay) is indicated; and
as §1, §2, §3, §4
ACID ON PLATELET AGGREGATION INDUCED BY
COLLAGEN AFTER ORAL ADMINISTRATION TO HUMANS*.
*An increase of delay time and x and a decrease of y with respect to
control indicate an inhibitory effect on platelet aggregation (see FIG.

[6] = ADP 4.1×10^-6 M, read-out: Platelet Aggregation Inhibition (PAI)
[7] = Collagen 33.3 μg/ml, read-out: Platelet Aggregation Inhibition (PAI)
[8] = read-out: Platelet Aggregation Inhibition (PAI), ADP 4.1×10^-6 M
[9] = read-out: Platelet Aggregation Inhibition (PAI), Collagen 33.3 μg/ml

CC(=O)Oc1cc(C(F)(F)F)ccc1C(=O)O [2-acetoxy-4-trifluoromethylbenzoic acid]
Euglobin lysis time: Von Kaulas's test ([1]; 4th day): 140.0 ± 12.3 min
Activated kaolin test ([1]; 4th day): 0.797±0.03
Activated partial thromboplastin test: APTI ([1]; 4th day): 0.720±0.03
Howell's test ([1]; 4th day): 0.723±0.04
Plasma prothrombine test: Quick test ([1]; 4th day): 0.938±0.02
Serum prothrombin time ([1]; 4th day): 38.8 ± 2.7 s
Bleeding time, Duke test ([1]; 4th day): 133.0 ± 19.3 s
Clotting time ([1]; 4th day): 521.6 ± 29.7 s
Thromboelastogram K ([1]; 4th day): 24.6±1.6 cm
Thromboelastogram r ([1]; 4th day): 19.6±1.2 cm
Euglobin lysis time: Von Kaulas's test ([1]; 7th day): 136.1 ± 11.5 min
Activated kaolin test ([1]; 7th day): 0.890±0.02
Activated partial thromboplastin test: APTI ([1]; 7th day): 0.890±0.03
Howell's test ([1]; 7th day): 0.807±0.04
Plasma prothrombine test: Quick test ([1]; 7th day): 0.933±0.02
Serum prothrombin time ([1]; 7th day): 37.3 ± 3.9 s
Bleeding time, Duke test ([1]; 7th day): 116.0 ± 13.8 s
Clotting time ([1]; 7th day): 526.6 ± 25.6 s
Thromboelastogram K ([1]; 7th day): 22.1±1.5 cm
Thromboelastogram r ([1]; 7th day): 21.6±3.6 cm
anticoagulant action (in words) [1]: exert an anticoagulant action
blood fibrinolytic activity (in words) [1]: increase of the blood fibrinolytic activity
Clot retraction [1]: NEGATIVE
Degradation products of fibrinogen: DPF [1]: NEGATIVE
Parrot's test [1]: POSITIVE IN TWO HUMANS
Tourniquet test [1]: NEGATIVE
inhibition at 6250 µM ([2]; ADP 1.6×10^-6 M, plasma concentration 6.25×10^-3 molar, read-out: Platelet Aggregation Inhibition (PAI)): 22.5%
inhibition at 8300 µM ([2]; ADP 1.6×10^-6 M, plasma concentration 8.30×10^-3 molar, read-out: Platelet Aggregation Inhibition (PAI)): 38.6%
inhibition at 4100 µM ([2]; Collagen 33.3 mcg/ml, plasma concentration 4.10×10^-3 molar, read-out: Platelet Aggregation Inhibition (PAI)): 37.5%
inhibition at 8300 µM ([2]; Collagen 33.3 mcg/ml, plasma concentration 8.30×10^-3 molar, read-out: Platelet Aggregation Inhibition (PAI)): 62%
inhibition at 17000 µM ([2]; Epinephrine 1.4×10^-6 M, plasma concentration 17.0×10^-3 molar, read-out: Platelet Aggregation Inhibition (PAI)): 74%
inhibition at 830 µM [3, 6]: 26%
inhibition at 2080 µM [3, 6]: 37.5%
inhibition at 4150 µM [3, 6]: 51.9%
inhibition at 8300 µM [3, 6]: 93.7%
inhibition at 4150 µM [3, 7]: 34.5%
inhibition at 8300 µM [3, 7]: 52.7%
in vivo action on human platelet aggregation (in words) [4]: far more effective compound
y (collagen-induced aggregation curve) ([5]; 4th day): 41 mm and 45 mm
delay (collagen-induced aggregation curve) ([5]; 4th day): 60 xc and 72 xc
x (collagen-induced aggregation curve) ([5]; 4th day): 22 mm and 24 mm and 17 mm and 25 mm
delay (collagen-induced aggregation curve) ([5]; 7th day): 108 xc and 60 xc and 96 xc and 72 xc and 84 xc

O=C(O)c1ccc(C(F)(F)F)cc1OP(=O)(O)O [2-phosphonoxy-4-trifluoromethylbenzoic acid]
Hematocrit ([1]; 4th day): 42.0±1.0
Platelet count ([1]; 4th day): 253.3±10.5 per mm^3 ×10^3
Euglobin lysis time: Von Kaulas's test ([1]; 4th day): 145.1 ± 9.3 min
Activated kaolin test ([1]; 4th day): 0.768±0.05
Activated partial thromboplastin test: APTI ([1]; 4th day): 0.823±0.04
Howell's test ([1]; 4th day): 0.873
Plasma prothrombine test: Quick test ([1]; 4th day): 0.966±0.02
Serum prothrombin time ([1]; 4th day): 34.8 ± 2.6 s
Bleeding time, Duke test ([1]; 4th day): 155.0 ± 19.6 s
Clotting time ([1]; 4th day): 527.5 ± 30.8 s
Thromboelastogram K ([1]; 4th day): 25.3±2.7 cm
Thromboelastogram r ([1]; 4th day): 17.8±2.0 cm
Hematocrit ([1]; 7th day): 45.0±1.4
Platelet count ([1]; 7th day): 223.3±12.8 per mm^3 ×10^3
Euglobin lysis time: Von Kaulas's test ([1]; 7th day): 136.6 ± 9.0 min
Activated kaolin test ([1]; 7th day): 0.960±0.04
Activated partial thromboplastin test: APTI ([1]; 7th day): 0.960±0.01
Howell's test ([1]; 7th day): 0.793±0.07
Plasma prothrombine test: Quick test ([1]; 7th day): 0.986±0.02
Serum prothrombin time ([1]; 7th day): 33.0 ± 1.5 s
Bleeding time, Duke test ([1]; 7th day): 112.5 ± 10.8 s
Clotting time ([1]; 7th day): 520.0 ± 28.6 s
Thromboelastogram K ([1]; 7th day): 19.9±1.9 cm
Thromboelastogram r ([1]; 7th day): 15.0±1.3 cm
anticoagulant action (in words) [1]: exert an anticoagulant action
blood fibrinolytic activity (in words) [1]: increase of the blood fibrinolytic activity
Clot retraction [1]: NEGATIVE
Degradation products of fibrinogen: DPF [1]: NEGATIVE
Parrot's test [1]: POSITIVE IN FOUR HUMANS
Tourniquet test [1]: NEGATIVE
inhibition at 6250 µM ([2]; read-out: Platelet Aggregation Inhibition (PAI), ADP 1.6×10^-6 M, plasma concentration 6.25×10^-3 molar): 56.6%
inhibition at 8300 µM ([2]; read-out: Platelet Aggregation Inhibition (PAI), ADP 1.6×10^-6 M, plasma concentration 8.30×10^-3 molar): 60.8%
inhibition at 4100 µM ([2]; read-out: Platelet Aggregation Inhibition (PAI), Collagen 33.3 mcg/ml, plasma concentration 4.10×10^-3 molar): 0%
inhibition at 8300 µM ([2]; read-out: Platelet Aggregation Inhibition (PAI), Collagen 33.3 mcg/ml, plasma concentration 8.30×10^-3 molar): 12.6%
inhibition at 17000 µM ([2]; read-out: Platelet Aggregation Inhibition (PAI), Epinephrine 1.4×10^-6 M, plasma concentration 17.0×10^-3 molar): 59%
inhibition at 830 µM [3, 8]: 11.2%
inhibition at 2080 µM [3, 8]: 23.1%
inhibition at 4150 µM [3, 8]: 57.5%
inhibition at 8300 µM [3, 8]: 69.8%
inhibition at 4150 µM [3, 9]: 45.5%
inhibition at 8300 µM [3, 9]: 94.5%
in vivo action on human platelet aggregation (in words) [4]: only a slight in vivo action on human platelet aggregation
y (collagen-induced aggregation curve) ([5]; 4th day): 49 mm and 42 mm and 36 mm and 37 mm and 41 mm
delay (collagen-induced aggregation curve) ([5]; 4th day): 36 xc and 24 xc and 48 xc
x (collagen-induced aggregation curve) ([5]; 4th day): 14 mm and 16 mm and 17 mm and 22 mm and 18 mm
delay (collagen-induced aggregation curve) ([5]; 7th day): 48 xc and 24 xc and 36 xc
x (collagen-induced aggregation curve) ([5]; 7th day): 13 mm and 14 mm and 15 mm and 23 mm and 12 mm

CNC[C@H](O)c1ccc(O)c(O)c1 [epinephrine, reference compound]
influence on rat platelets ([3]; epinephrine as aggregating agent): no
